Columns and labels:
Test in all cases: MIC, CLSI broth microdilution
Type in all cases: cell-based
[1] = test system: S. aureus ASAU1033 (Fluoroquinolone-resistant); conditions: Table 3
Procedure, shortened: (§1)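 Broth microdilution per CLSI M7-A7, with serial two-fold compound dilutions in Mueller Hinton Broth mixed 1:1 with inoculum. Colonies from a previous-day agar plate were suspended in saline to a final 5×10^5 CFU/mL. Plates were incubated 20 hours at 35° C. in ambient air.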

[2] = test system: S. pneumoniae ASPN1027 (Fluoroquinolone-resistant)
Procedure, shortened: as §1

[3] = test system: S. aureus ASAU1031 (Fluoroquinolone-resistant)
Procedure, shortened: as §1

[4] = test system: A. baumannii AABA1009 (Fluoroquinolone-resistant); conditions: Table 2
Procedure, shortened: as §1

[5] = test system: S. pneumoniae ASPN1018 (Fluoroquinolone-resistant); conditions: Table 3
Procedure, shortened: as §1

[6] = test system: P. aeruginosa APAE002 (Fluoroquinolone susceptible); conditions: Table 3
Procedure, shortened: as §1

[7] = test system: E. coli AECO002 (Fluoroquinolone susceptible); conditions: Table 3
Procedure, shortened: as §1

[8] = test system: E. coli AECO086 (Fluoroquinolone-resistant); conditions: Table 3
Procedure, shortened: as §1

[9] = test system: S. pneumoniae ASPN002 (Fluoroquinolone-susceptible, ATCC10813); conditions: Table 3
Procedure, shortened: as §1

[10] = test system: S. aureus ASAU002 (Fluoroquinolone-susceptible, ATCC33591 (MRSA)); conditions: Table 3
Procedure, shortened: as §1

[11] = test system: P. aeruginosa APAE054 (Fluoroquinolone-resistant)
Procedure, shortened: as §1

[12] = test system: E. coli AECO001 (Fluoroquinolone susceptible, ATCC25922)
Procedure, shortened: as §1

[13] = test system: S. pneumoniae ASPN001 (Fluoroquinolone-susceptible, ATCC49619)
Procedure, shortened: as §1

[14] = test system: A. baumannii AABA1065 (Fluoroquinolone-susceptible)
Procedure, shortened: as §1

[15] = test system: E. coli AECO066 (Fluoroquinolone-resistant)
Procedure, shortened: as §1

[16] = test system: S. aureus ASAU001 (Fluoroquinolone-susceptible, ATCC29213)
Procedure, shortened: as §1

[17] = test system: P. aeruginosa APAE001 (Fluoroquinolone-susceptible, ATCC27853)
Procedure, shortened: as §1

[18] = test system: A. baumannii AABA1020 (Fluoroquinolone-resistant); conditions: Table 3
Procedure, shortened: as §1

SMILES	MIC ASAU1033 [1]	MIC ASPN 1027 ([2]; Table 2)	MIC ASPN 1027 ([2]; Table 3)	MIC ASAU 1031 ([3]; Table 2)	MIC ASAU 1031 ([3]; Table 3)	MIC AABA 1009 [4]	MIC ASPN1018 [5]	MIC APAE002 [6]	MIC AECO002 [7]	MIC AECO086 [8]	MIC ASPN002 [9]	MIC ASAU002 [10]	MIC APAE 054 ([11]; Table 2)	MIC APAE 054 ([11]; Table 3)	MIC AECO 001 ([12]; Table 2, 35° C., 20 hours)	MIC AECO 001 ([12]; Table 3)	MIC ASPN 001 ([13]; Table 2)	MIC ASPN 001 ([13]; Table 3)	MIC AABA 1065 ([14]; Table 2)	MIC AABA 1065 ([14]; Table 3)	other results
N[C@H]1C[C@H]2CC=Cc3c(c(F)cc4c(=O)c(C(=O)O)cn(C5CC5)c34)N2C1.O=C(O)C(F)(F)F [7B/18, (7aR,9S)-9-Amino-4-cyclopropyl-12-fluoro-1-oxo-4,7,7a,8,9,10-hexahydro-1H-pyrrolo[1′,2′:1,7]azepino[2,3h]-quinoline-2-carboxylic acid trifluoroacetate]	D (MIC's of greater than 8.0 μg/mL = D)	B (MIC's of greater than 1.0 μg/mL to 8.0 μg/mL = B)	C (MIC's of 2.0 μg/mL to 8.0 μg/mL = C)	B (MIC's of greater than 1.0 μg/mL to 8.0 μg/mL = B)	C (MIC's of 2.0 μg/mL to 8.0 μg/mL = C)	C (MIC's of greater than 8.0 μg/mL = C)	B (MIC's of 1.0 μg/mL to 2.0 μg/mL = B)	A (MIC's of less than 1.0 = A)	A (MIC's of less than 1.0 = A)	C (MIC's of 2.0 μg/mL to 8.0 μg/mL = C)	A (MIC's of less than 1.0 = A)	A (MIC's of less than 1.0 = A)	C (MIC's of greater than 8.0 μg/mL = C)	D (MIC's of greater than 8.0 μg/mL = D)	A (MIC's of 1.0 μg/mL or less = A)	A (MIC's of less than 1.0 = A)	A (MIC's of 1.0 μg/mL or less = A)	A (MIC's of less than 1.0 = A)	A (MIC's of 1.0 μg/mL or less = A)	A (MIC's of less than 1.0 = A)	MIC AECO 066 ([15]; Table 2): B (MIC's of greater than 1.0 μg/mL to 8.0 μg/mL = B); MIC AECO 066 ([15]; Table 3): C (MIC's of 2.0 μg/mL to 8.0 μg/mL = C); MIC ASAU 001 ([16]; Table 2): A (MIC's of 1.0 μg/mL or less = A); MIC ASAU 001 ([16]; Table 3): A (MIC's of less than 1.0 = A); MIC APAE 001 ([17]; Table 2): A (MIC's of 1.0 μg/mL or less = A); MIC APAE 001 ([17]; Table 3): A (MIC's of less than 1.0 = A); MIC AABA1020 [18]: C (MIC's of 2.0 μg/mL to 8.0 μg/mL = C)
N[C@@H]1C[C@H]2CC=Cc3c(c(F)cc4c(=O)c(C(=O)O)cn(C5CC5)c34)N2C1.O=C(O)C(F)(F)F [7D/40, (7aR,9R)-9-Amino-4-cyclopropyl-12-fluoro-1-oxo-4,7,7a,8,9,10-hexahydro-1H-pyrrolo[1′,2′:1,7]-azepino[2,3-h]quinoline-2-carboxylic acid trifluoroacetate]	D (MIC's of greater than 8.0 μg/mL = D)	C (MIC's of greater than 8.0 μg/mL = C)	D (MIC's of greater than 8.0 μg/mL = D)	C (MIC's of greater than 8.0 μg/mL = C)	D (MIC's of greater than 8.0 μg/mL = D)	C (MIC's of greater than 8.0 μg/mL = C)	D (MIC's of greater than 8.0 μg/mL = D)	B (MIC's of 1.0 μg/mL to 2.0 μg/mL = B)	A (MIC's of less than 1.0 = A)	D (MIC's of greater than 8.0 μg/mL = D)	B (MIC's of 1.0 μg/mL to 2.0 μg/mL = B)	A (MIC's of less than 1.0 = A)	C (MIC's of greater than 8.0 μg/mL = C)	D (MIC's of greater than 8.0 μg/mL = D)	A (MIC's of 1.0 μg/mL or less = A)	A (MIC's of less than 1.0 = A)	B (MIC's of greater than 1.0 μg/mL to 8.0 μg/mL = B)	B (MIC's of 1.0 μg/mL to 2.0 μg/mL = B)	A (MIC's of 1.0 μg/mL or less = A)	A (MIC's of less than 1.0 = A)	MIC AECO 066 ([15]; Table 2): C (MIC's of greater than 8.0 μg/mL = C); MIC AECO 066 ([15]; Table 3): D (MIC's of greater than 8.0 μg/mL = D); MIC ASAU 001 ([16]; Table 2): A (MIC's of 1.0 μg/mL or less = A); MIC ASAU 001 ([16]; Table 3): A (MIC's of less than 1.0 = A); MIC APAE 001 ([17]; Table 2): B (MIC's of greater than 1.0 μg/mL to 8.0 μg/mL = B); MIC APAE 001 ([17]; Table 3): B (MIC's of 1.0 μg/mL to 2.0 μg/mL = B); MIC AABA1020 [18]: D (MIC's of greater than 8.0 μg/mL = D)
NC1CCN2c3c(F)cc4c(=O)c(C(=O)O)cn(C5CC5)c4c3CCCC12.O=C(O)C(F)(F)F [16/18, (7aR,8R)-8-Amino-4-cyclopropyl-12-fluoro-1-oxo-4,5,6,7,7a,8,9,10-octahydro-1H-pyrrolo[1′,2′:1,7]azepino[2,3-h]quinoline-2-carboxylic acid trifluoroacetate]	C (MIC's of 2.0 μg/mL to 8.0 μg/mL = C)	B (MIC's of greater than 1.0 μg/mL to 8.0 μg/mL = B)	A (MIC's of less than 1.0 = A)	B (MIC's of greater than 1.0 μg/mL to 8.0 μg/mL = B)	A (MIC's of less than 1.0 = A)	B (MIC's of greater than 1.0 μg/mL to 8.0 μg/mL = B)	B (MIC's of 1.0 μg/mL to 2.0 μg/mL = B)	A (MIC's of less than 1.0 = A)	A (MIC's of less than 1.0 = A)	C (MIC's of 2.0 μg/mL to 8.0 μg/mL = C)	A (MIC's of less than 1.0 = A)	A (MIC's of less than 1.0 = A)	C (MIC's of greater than 8.0 μg/mL = C)	D (MIC's of greater than 8.0 μg/mL = D)	A (MIC's of 1.0 μg/mL or less = A)	A (MIC's of less than 1.0 = A)	A (MIC's of 1.0 μg/mL or less = A)	A (MIC's of less than 1.0 = A)	A (MIC's of 1.0 μg/mL or less = A)	A (MIC's of less than 1.0 = A)	MIC AECO 066 ([15]; Table 2): B (MIC's of greater than 1.0 μg/mL to 8.0 μg/mL = B); MIC AECO 066 ([15]; Table 3): C (MIC's of 2.0 μg/mL to 8.0 μg/mL = C); MIC ASAU 001 ([16]; Table 2): A (MIC's of 1.0 μg/mL or less = A); MIC ASAU 001 ([16]; Table 3): A (MIC's of less than 1.0 = A); MIC APAE 001 ([17]; Table 2): A (MIC's of 1.0 μg/mL or less = A); MIC APAE 001 ([17]; Table 3): A (MIC's of less than 1.0 = A); MIC AABA1020 [18]: D (MIC's of greater than 8.0 μg/mL = D)
